Data reported in article PMC4801399, “Impact of a CXCL12/CXCR4 Antagonist in Bleomycin (BLM) Induced Pulmonary Fibrosis and Carbon Tetrachloride (CCl4) Induced Hepatic Fibrosis in Mice” (PLoS ONE, 2016).
Read-outs that look alike come from different tables or passages of the source.

Key:
[1] = test system: leukocyte mobilization (blood cell counts); assay: Hematology measurements after IP administration (leukocyte mobilization); type: in vivo, C57BL/6 mice; details: IP 400 μg/mouse
Protocol: At each endpoint, animals were euthanized with CO2 and blood collected via cardiac puncture. An aliquot was set aside at room temperature for hematology measurements with remaining blood processed for plasma for drug concentration determination. Lungs and livers were also collected and immediately frozen on dry ice and stored at -70°C until determination of drug concentration.

[2] = AMD070 PK study via SC injection: plasma, lung and liver concentration; type: in vivo, C57BL/6 mice; details: SC 400 μg/mouse; for Kp: C57BL/6, read-out: Tissue AUC/Plasma AUC
Protocol: All preceding procedures were same as those for AMD070 PK studies via IP injections. AMD070 concentrations in mouse plasma were determined using protein precipitation extraction followed by UPLC-MS/MS analysis. Briefly, 100 μL aliquots of plasma were transferred to individual wells of an Isolute PPT+ (Biotage) array plate containing 300 μL of 0.1% formic acid (FA) in acetonitrile (ACN). […] The sample residue was then reconstituted into 200 μL of 0.1/5/95 FA/ACN/H2O (v/v/v) and analyzed using reverse phase chromatography (gradient elution) combined with multiple reaction monitoring acquisition (MRM). The mobile phases consisted of 0.1% FA in H2O and 0.1% FA in ACN. AMD070 was extracted from lung and liver tissue by homogenization under basic conditions followed by liquid-liquid extraction in tert-butyl methyl ether (TBME) and ethyl acetate respectively. In summary, 50 mg of lung or liver tissue pieces were cut, weighed, and transferred to homogenization tubes. 25 μL of deionized water for lung and 10 μL for liver were added to each tube, followed by the addition of zirconium (Zr) homogenization beads. The samples were homogenized for approximately 20 seconds in the BeadBeater, followed by 1 minute of centrifugation at room temperature at 13,520 rcf. 200 μL of 1 N NaOH was then transferred to each tube, followed by a second homogenization/centrifugation cycle as described above. […] The dried residue was reconstituted into 0.1/5/95 TFA/ACN/H2O and analyzed using reverse phase chromatography (gradient elution) combined with MRM acquisition in positive electrospray mode (ES+). The mobile phases consisted of 0.1% TFA in H2O and 0.1% TFA in ACN.

[3] = test system: CCl4-induced hepatic fibrosis; assay: CCl4-induced murine model of hepatic fibrosis; type: in vivo, C57BL/6 mice
From the text: Hepatic fibrosis was induced in eleven week old female C57BL/6 mice from JAX Labs. Animals were randomly divided into three groups: oil plus vehicle (PBS) control, CCl4 plus vehicle (PBS) control and CCl4 plus AMD070. As some animals were euthanized prior to study completion because they had reached a humane endpoint, final group numbers were n = 9 for oil plus vehicle (PBS) control, n = 6 for CCl4 plus vehicle (PBS) control and n = 7 for CCl4 plus AMD070 groups. […] Starting one day prior to the initial CCl4 treatment (day -1), dosing with either AMD070 reconstituted in PBS (50 mg/kg) or PBS vehicle control (10 mL/kg) was administered IP and continued 5 days/week for 4 weeks. Specifically, AMD070 or PBS treatments were not performed on the 2 days/week on which animals were given CCl4 (or olive oil vehicle control). One day after the last AMD070 or PBS treatment, animals were euthanized with CO2.
Livers were perfused with PBS then 10% formalin and the left top lobe preserved in 10% neutral buffer formalin (NBF) for a week. The fixed liver was embedded in paraffin, six cross sections at 500 μm apart generated and stained with Picrosirius Red. For quantitation of percent hepatic fibrosis, fibrotic area (Picrosirius Red) was divided by total liver area and multiplying by 100. Three histology slides/animal were analyzed. The three slides corresponded to one slide from each of the alternative six cross sections. These analyses were performed with Olympus cellSens and the analyst was blinded to sample identity.
The top right lobe of livers were homogenized in 1 mL of Trizol (Invitrogen) and flash frozen in dry ice and stored in -80°C for RNA isolation to perform RT-qPCR. Total RNA was isolated and cDNA prepared using the High Capacity cDNA Reverse Transcription kit according to the manufacturer’s instructions (Life Technologies). RT-qPCR was carried out as previously described using the standard curve method. The following primer/probe sets were used to detect: Acta2 (IDT Assay–N007392.1), Probe- 5’-/56-FAM/TTACAGAGC/ZEN/CCAGAGCCATTGTCG/3IABkFQ/3’, Primer 1–5’-[…]-3’, Primer 2: 5’-[…]-3’; Col1a1 (Life Technologies custom primer/probe mix), primer 1–5’-[…], primer 2–5’- […], probe- 5’-FAM-ACACCGGAACTTGGG-MGBNFQ; Tbp (Life Technologies custom primer/probe mix), Primer 1–5’-[…], Primer 2–5’-TGGCTCCTGTGCACACCAT, Probe- 5’-FAM-CGTTGATTTTCAGTTCTGG-MGBNFQ; Gapdh (IDT Assay–Mm.PT.39a.1), probe- 5’-/56-FAM/TGCAAATGG/ZEN/CAGCCCTGGTG/3IABkFQ/3’, primer 1–5’-AATGGTGAAGGTCGGTGTG-3’, primer 2–5’-[…]-3’.
Five μL of serum was used with the AST Activity Assay Kit (Sigma MAK055) as per manufacturer’s instructions to determine serum AST levels.

[4] = test system: mobilization of bone marrow hematopoietic progenitors; parameters: method as in PMID 17452489; details: human subjects; cited from earlier work
[5] = RT-qPCR relative to Gapdh and Tbp, CCl4 plus AMD070 vs CCl4 plus PBS

NCCCCN(Cc1nc2ccccc2[nH]1)[C@H]1CCCc2cccnc21 [AMD070]
RBC levels [1]: unaffected | Tmax of WBC increase [1]: 180 min | WBC counts [1]: significant but transient increase | lymphocytes (WBC differential) [1]: increased | neutrophils (WBC differential) [1]: increased | platelet levels [1]: unaffected | Cmax ([2]; C57BL/6, 400 ug, Liver): 5760 ng/g | Tmax ([2]; C57BL/6, 400 ug, Liver): 30 min | Cmax ([2]; C57BL/6, 400 ug, Lung): 5650 ng/g | Tmax ([2]; C57BL/6, 400 ug, Lung): 60 min | Cmax ([2]; C57BL/6, 400 ug, Plasma): 700 ng/mL | Tmax ([2]; C57BL/6, 400 ug, Plasma): 30 min | AUC ([2]; C57BL/6, 400 ug, Plasma, read-out: AUC (all time points)): 970 ng·h/mL | Kp ([2]; Liver): 79.7 | Kp ([2]; Lung): 83.3 | percent liver fibrosis (Picrosirius red staining) ([3]; CCl4 plus AMD070 50 mg/kg IP 5 days/week for 4 weeks, group average, CCl4 plus PBS 3.2%): 3.6% | mortality rate between groups ([3]; CCl4 plus AMD070 50 mg/kg IP vs control groups): no difference | liver Acta2 (αSma) relative transcription level [3, 5]: not different | liver Col1a1 relative transcription level [3, 5]: not different | serum AST levels ([3]; after 4 weeks, CCl4 plus AMD070 vs CCl4 plus vehicle control): no difference | time of peak mobilization of bone marrow hematopoietic progenitors post dosing [4]: two to three
